These results are taken from patent publication US4620871A (priority 1980, dated 1986).

In one assay the test system is Pinto beans. The assay is described as follows: Preservation of chlorophyll in Pinto beans (Example 17). Format: in vivo. As to conditions: zeatin 20 ppm, kinetin/benzyladenine 30 ppm, others 200 ppm; for Extinction: 665 mμ, 200 mg fresh weight, 2 weeks. As for the experimental part:
Endogeneous and synthetic cytokinins were applied as comparative substances. Solutions with varying concentrations, but always more dilute than 10^-4 moles, were applied in the tests.
The tests were performed on Pinto beans. The plants were treated with an endogenous cytokinin (zeatine), synthetic cytokinins (kinetin, benzyladenine) or cytokinin-like compounds, respectively, and the chlorophyll content of the leaves was determined 2 weeks after the treatment by measuring the extinction of the extract of the leaves at 665 mμ.

Assay [1] concerns leaves of Pinto bean. The assay is described as follows: Protein synthesis, glycine-2-14C incorporation in Pinto bean leaves (Example 19). As to conditions: 18 hours, zeatin 20 ppm, kinetin/benzyladenine 30 ppm, others 200 ppm; for Radioactivity of the TCA-insoluble fraction: control 3.17. On the procedure: The tests were performed on leaves of Pinto bean. The leaf segments were treated with an endogeneous cytokinin (zeatin), synthetic cytokinins (kinetin, benzyladenine) or with the compositions according to the invention, respectively, by floating the leaf segments on the solution of the test substance for 18 hours. Thereafter the leaf segments were exposed to a labelled amino acid (glycine-2-^14 C) for 3 hours, and the incorporation of the amino acid was determined by radiometry.

Another assay concerns leaves of Pinto beans. The assay is described as follows: Stimulation of carbon dioxide fixation, Pinto beans (Example 21). The note with it: for Radioactivity A: A = in the light, control 2.14; for Radioactivity A / Radioactivity B / Radioactivity C / Stimulation: zeatin 20, kinetin/benzyladenine 30, others 200 ppm; for Radioactivity B: B = in the dark, control 0.18; for Radioactivity C: C = photosynthetic, control 2.32. On the procedure:
The tests were performed on leaves of Pinto beans. The leaf segments were treated with an endogeneous cytokinin (zeatin), synthetic cytokinins (kinetin, benzyladenine) or with the compositions according to the invention, respectively, by floating the leaf segments on the solution of the test substance for 18 hours, thereafter the leaf segments were exposed to labelled carbon dioxide (activity: 100 μCi/5000 ml of ^14 CO2) for 0.5 hours.

The test system of assay [2] is leaves of Pinto bean. The assay is described as follows: Stimulation of photolytic activity, HTO, Pinto bean (Example 23). As to conditions: 18 hours, zeatin 20, kinetin/benzyladenine 30, others 200 ppm; for Photolytic activity: control 7.64. On the procedure: The stimulating effects of an endogeneous cytokinin (zeatin), synthetic cytokinins (kinetin, benzyladenine) and the cytokinin-like regulators according to the invention exerted on the photolytic activity connected to the decomposition of HTO were examined on leaves of Pinto bean. The leaf discs were floated for 18 hours on solutions of the substances under examination, and then exposed to a radioactivity of 200 μCi/100 ml for one hour to effect photolysis of HTO.

For another assay, the system named is Pinto bean. The assay is described as follows: Stimulation of membrane activity (nitrate uptake), Pinto bean (Example 25). Format: in vivo. The note with it: zeatin 20, kinetin/benzyladenine 30, others 200 ppm; for Protein nitrogen / Total nitrogen: 2 weeks; for Protein nitrogen: control 2.4; for Total nitrogen: control 3.8; for Protein nitrogen content in % of the total nitrogen content: control 63. On the procedure:
The tests were performed on Pinto bean. The plants were treated with solutions of an endogeneous cytokinin (zeatin), synthetic cytokinins and membraneactive regulators according to the invention, respectively, and the leaves of the plants were analyzed 2 weeks after the treatment.

The subject of the next assay is Alfalfa. The assay is described as follows: Alfalfa field tests 1979, Boly (Example 26). Format: in vivo. An excerpt: The effects of the compositions according to the invention exerted on the crop yield (green yield), crude protein content, protein nitrogen content and C/N ratio of alfalfa, observed under field conditions in the tests performed in 1979 at the Agricultural Combinate of Boly, Hungary, are listed in Table 17.

For another assay, the system named is maize for silage. The assay is described as follows: Maize for silage field tests 1979, Boly (Example 28). It counts as in vivo. The source says: The effects of the cytokinin-like regulators on the crop yield, crude protein content and real protein content of maize for silage, observed under field conditions in the tests performed in 1979 at the Agricultural Combinate of Boly, Hungary, are listed in Table 20.

The test system of the next assay is hybrid maize. The assay is described as follows: Grain yield of maize (Example 29). It counts as in vivo. As for the experimental part: The compositions according to the invention were applied as seed dressing agents onto the sowing-seeds of hybrid maize in a dosis of 0.5 kg/ha. The powdery compositions were wetted with water prior to application. The stand was sprayed three times during the cultivation period: first at the four-leaves development stage with a dosis of 3 kg/ha, then prior to tasseling with a dosis of 1 kg/ha, and finally prior to pollen ripening with a dosis of 2 kg/ha. The crop was evaluated as May shelled corn.

Another assay relates to maize leaves. The assay is described as follows: Fixation of 14CO2 in maize leaves (Example 36). As to conditions: 18 hours. On the procedure: (§1) The biological activities of cytokinin-like factors can be well characterized by measuring the intensity of the photosynthetic carbon dioxide fixation and the incorporation of labelled amino acids into the TCA-insoluble protein fraction. The intensity of photosynthetic carbon dioxide fixation was determined on maize leaves, utilizing ^14 CO2, whereas the incorporation of amino acids was examined on bean leaves, utilizing […]-^14 C.

In a further assay the test system is bean leaves. The assay is described as follows: Incorporation of Gly-2-14C in bean leaves (Example 36). The note with it: 18 hours. On the procedure:
as §1

Another assay has as its system Tobacco callus. The assay is described as follows: Growth of tobacco callus vs kinetin (Example 14). Format: cell-based. As to conditions: 2 ppm active agent. On the procedure: An untreated culture medium served as control. Tobacco callus was grown on the treated and untreated culture media (incubation period: 3 weeks), and the daily growth, the increase in cell number and the frequency of mitosis were measured according to the method of Skoog.
The test described in Example 13 was repeated so that a culture medium containing 1 ppm of kinetin was used as control, and the compositions according to the invention were applied in amounts corresponding to 2 ppm of active agent.

Assay [3] concerns callus isolated from Datura innoxia Mill. roots. The assay is described as follows: Growth of callus isolated from Datura innoxia Mill. roots (Example 15). It counts as cell-based. As to conditions: with kinetin (2 ppm).

In the assay with Pinto beans, `C/C(=C\CNc1ncnc2[nH]cnc12)CO` [Zeatin] returned an Extinction of 1.283 and a Promotion of 91.3%. Besides, the “Radioactivity of the TCA-insoluble fraction” value in the assay on leaves of Pinto bean [1] is 6.18 1000 dpm/200 mg fresh weight. Besides, the activation at 20 ppm in the assay with leaves of Pinto bean [1] (read-out: Stimulation) stood at 95.1%. Also, in the assay with leaves of Pinto beans, the “stimulation of CO2 fixation, comparison in words” value is reported as “the most potent stimulating agent”; the “Radioactivity A” value is on record as 5.12 dpm/200 mg fresh weight; the “Radioactivity B” value stood at 0.46 dpm/200 mg fresh weight; the “Radioactivity C” value was 5.58 dpm/200 mg fresh weight. In addition, the Stimulation in the assay with leaves of Pinto beans was found to be 140.8%. In the assay on leaves of Pinto bean [2], the Stimulation is given as 108% and the Photolytic activity was 15.94 dpm/mg of glucose. In the assay on Pinto bean, the Protein nitrogen is on record as 2.8 % of dry weight; the Total nitrogen is 3.8 % of dry weight; the “Protein nitrogen, stimulation” value turned out to be 16.6%; the “Protein nitrogen content in % of the total nitrogen content” value (from here on “Protein nitrogen content in %”) was determined as 73%.

As for `CC(C)[n+]1c[nH]c2ccccc21.[Cl-]` [N--Isopropyl-benzimidazolium chloride, N-isopropyl-benzimidazolium chloride], in the assay on Alfalfa (control 5.31), the C/N ratio is on record as 4.20. In addition, the P2O5 content with Alfalfa (control 8.3) is reported as 10.9 % of dry substance. Moreover, the Crude protein content in the assay with Alfalfa (control 21.3) is recorded as 25.8 % of dry substance. In addition, the Green yield with Alfalfa (control 120) was 142 q/ha. Besides, in the assay on Alfalfa (in vivo), the “C/N ratio, decrease” value amounted to 21.0%; the “Crude protein content, increase” value was 21.5%; the “Green yield, increase” value stood at 18.7%; the “P2O5 content, increase” value came to 31.7%. Moreover, the P2O5 content in the assay with maize for silage (control 7.5) is 9.8 % of dry substance. Further, the Crude protein content with maize for silage (control 13.2) was 17.1 % of dry substance. For the same compound, in the assay with maize for silage (control 31.4), the C/N ratio was 23.5. The compound also displayed a Green weight with maize for silage (control 310.2) of 398.2 q/ha. Moreover, in the assay with maize for silage (in vivo), the “C/N ratio, decrease” value was 25.4%; the “Crude protein content, increase” value came to 29.7%; the “Green weight, increase” value came to 28.4%; the “P2O5 content, increase” value is 30.8%. Besides, in the assay on hybrid maize (in vivo), the “Grain yield, increase” value stood at 57.1%. Besides, the Grain yield in the assay with hybrid maize (seed dressing 0.5 kg/ha + sprays 3, 1, 2 kg/ha, control 132.8) was found to be 208.5 q/ha. Also, the “Fixation of 14CO2” value in the assay with maize leaves (fresh weight, control 5.72) worked out at 10.92 μCi/g. The “Fixation of 14CO2, %” value in the assay with maize leaves (increase over control) is listed as 92%. For the same compound, the “Incorporation of Gly-2-14C” value in the assay on bean leaves (fresh weight, control 3.52) was determined as 4.85 μCi/g. Besides, the “Incorporation of Gly-2-14C, %” value with bean leaves (increase over control) was found to be 35%.

As for `c1ccc(CNc2ncnc3[nH]cnc23)cc1` [Benzyladenine, benzyladenine], in the assay on Pinto beans, the Extinction came out at 1.229 and the Promotion came out at 83.1%. Moreover, in the assay with leaves of Pinto bean [1], the Stimulation is 87.0% and the “Radioactivity of the TCA-insoluble fraction” value is reported as 5.92 1000 dpm/200 mg fresh weight. In the assay with leaves of Pinto beans, the “Radioactivity A” value came out at 4.87 dpm/200 mg fresh weight, the “Radioactivity B” value was found to be 0.41 dpm/200 mg fresh weight, the “Radioactivity C” value is given as 5.28 dpm/200 mg fresh weight and the Stimulation was found to be 128.0%. In the assay on leaves of Pinto bean [2], the Stimulation came out at 125% and the Photolytic activity is on record as 17.21 dpm/mg of glucose. Moreover, in the assay with Pinto bean, the Protein nitrogen is listed as 2.8 % of dry weight; the Total nitrogen is 3.8 % of dry weight; the “Protein nitrogen, stimulation” value is 16.6%; the “Protein nitrogen content in %” value came out at 73%.

Regarding `c1coc(CNc2ncnc3[nH]cnc23)c1` [Kinetin], in the assay with Tobacco callus (kinetin 1 ppm), the “Dry weight of the callus” value was 174.11 mg and the Speed of growth is on record as 97.17. Moreover, the activity at 2 ppm in the assay on Tobacco callus (Nicotiana tabacum, 504 h, kinetin 1 ppm = 100, read-out: Speed of growth, Index %) is 100%. Further, in assay [3], the Dry substance is 3.52%; the “Dry weight of the callus” value was found to be 175.06 mg; the “Fresh weight of the callus” value is 4.9694 g; the “Growth, dry weight” value came to 15.56. Besides, in assay [3], the “Growth, fresh weight” value was 15.56 and the Speed of growth turned out to be 98.28 mg/day. In the assay with Pinto beans, this compound registered an Extinction of 1.120 and a Promotion of 66.0%. Moreover, in the assay with leaves of Pinto bean [1], the Stimulation is 69.4% and the “Radioactivity of the TCA-insoluble fraction” value is given as 5.36 1000 dpm/200 mg fresh weight. In the assay on leaves of Pinto beans, the “Radioactivity A” value turned out to be 4.15 dpm/200 mg fresh weight, the “Radioactivity B” value amounted to 0.37 dpm/200 mg fresh weight, the “Radioactivity C” value is recorded as 4.52 dpm/200 mg fresh weight and the Stimulation turned out to be 95.2%. Moreover, in the assay with leaves of Pinto bean [2], the Stimulation came to 82% and the Photolytic activity was 13.96 dpm/mg of glucose. In the assay with Pinto bean, the Protein nitrogen is on record as 2.8 % of dry weight; the Total nitrogen was 3.8 % of dry weight; the “Protein nitrogen, stimulation” value stood at 16.6%; the “Protein nitrogen content in %” value was 73%.
